Results on 29 molecules are retold here after patent US10730863B2, “Bridged bicyclic compounds as farnesoid X receptor modulators” (BRISTOL-MYERS SQUIBB COMPANY, priority 2017, dated 2020).

Usually EC50 stands for the concentration needed to bring the measured effect to its halfway point. A low value points to a more potent agent.

Chain of FXR (Q96RI1 262-486): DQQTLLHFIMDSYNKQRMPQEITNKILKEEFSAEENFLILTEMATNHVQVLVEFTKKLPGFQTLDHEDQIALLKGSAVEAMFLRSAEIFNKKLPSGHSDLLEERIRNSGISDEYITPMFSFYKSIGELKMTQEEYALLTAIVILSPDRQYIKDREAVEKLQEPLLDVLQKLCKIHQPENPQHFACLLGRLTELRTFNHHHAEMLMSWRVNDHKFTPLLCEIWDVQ

This assay has as its target FXR (Homo sapiens (Human), UniProt Q96RI1). The experiment in a line: FXR EC50 (FXR agonist activity reported with each example). It counts as cell-based.
Take `O=C(O)c1cccc(OCC23CCC(OCc4c(-c5c(Cl)cccc5Cl)noc4C4CC4)(CC2)CC3)n1` [Example 110, 6-((4-((5-cyclopropyl-3-(2,6-dichlorophenyl)isoxazol-4-yl)methoxy)bicyclo[2.2.2]octan-1-yl)methoxy)picolinic acid]: the EC50 turned out to be 52 nM. With `O=C(O)c1ccnc(OCC23CCC(OCc4c(-c5c(Cl)cccc5Cl)noc4C4CC4)(CC2)CC3)c1` [Example 111, 2-((4-((5-cyclopropyl-3-(2,6-dichlorophenyl)isoxazol-4-yl)methoxy)bicyclo[2.2.2]octan-1-yl)methoxy)isonicotinic acid], the response was half-maximal at 110 nM (EC50).

`O=C(O)c1cncc(OCC23CCC(OCc4c(-c5c(Cl)cccc5Cl)noc4C4CC4)(CC2)CC3)n1` [Example 112, 6-((4-((5-cyclopropyl-3-(2,6-dichlorophenyl)isoxazol-4-yl)methoxy)bicyclo[2.2.2]octan-1-yl)methoxy)pyrazine-2-carboxylic acid] came in with a 50% effective concentration (EC50) of 690 nM. Against the preceding molecule, the EC50 is about 6.3-fold higher. The same measure for `O=C(O)c1cccc(OCC23CCC(OCc4c(-c5c(Cl)cncc5Cl)noc4C4CC4)(CC2)CC3)n1` [Example 113, 6-((4-((5-cyclopropyl-3-(3,5-dichloropyridin-4-yl)isoxazol-4-yl)methoxy)bicyclo[2.2.2]octan-1-yl)methoxy)picolinic acid]: 92 nM; for `O=C(O)c1ccc(OCC23CCC(OCc4c(-c5c(Cl)cncc5Cl)noc4C4CC4)(CC2)CC3)nc1` [Example 114, 6-((4-((5-cyclopropyl-3-(3,5-dichloropyridin-4-yl)isoxazol-4-yl)methoxy)bicyclo[2.2.2]octan-1-yl)methoxy)nicotinic acid]: 140 nM. In turn, `O=C(O)c1ccc2cc(OCC34CCC(OCc5c(-c6c(Cl)cncc6Cl)noc5C5CC5)(CC3)CC4)ccc2n1` [Example 115, 6-((4-((5-cyclopropyl-3-(3,5-dichloropyridin-4-yl)isoxazol-4-yl)methoxy)bicyclo[2.2.2]octan-1-yl)methoxy)quinoline-2-carboxylic acid] gave a concentration giving a half-maximal response (EC50) of 52 nM. The value for `O=C(O)Cc1ccccc1OCC12CCC(OCc3c(-c4c(Cl)cccc4Cl)noc3C3CC3)(CC1)CC2` [Example 116, 2-(2-((4-((5-cyclopropyl-3-(2,6-dichlorophenyl)isoxazol-4-yl)methoxy)bicyclo[2.2.2]octan-1-yl)methoxy)phenyl)acetic acid] was 900 nM. With `NC(=O)c1cccc(OCC23CCC(OCc4c(-c5c(Cl)cccc5Cl)noc4C4CC4)(CC2)CC3)n1` [Example 117, 6-((4-((5-cyclopropyl-3-(2,6-dichlorophenyl)isoxazol-4-yl)methoxy)bicyclo[2.2.2]octan-1-yl)methoxy)picolinamide], the half-maximal effective concentration (EC50) stood at 310 nM. The value for `O=C(O)c1cnc(OCC23CCC(OCc4c(-c5c(Cl)cncc5Cl)noc4C4CC4)(CC2)CC3)c(F)c1` [Example 118, 6-((4-((5-cyclopropyl-3-(3,5-dichloropyridin-4-yl)isoxazol-4-yl)methoxy)bicyclo[2.2.2]octan-1-yl)methoxy)-5-fluoronicotinic acid] was 33 nM; that for `COc1cncc(Cl)c1-c1noc(C2CC2)c1COC12CCC(COc3cc(C)c(C(=O)O)cn3)(CC1)CC2` [Example 119, 6-((4-((3-(3-chloro-5-methoxypyridin-4-yl)-5-cyclopropylisoxazol-4-yl)methoxy)bicyclo[2.2.2]octan-1-yl)methoxy)-4-methylnicotinic acid] was 120 nM. The same measure for `COc1cncc(Cl)c1-c1noc(C2CC2)c1COC12CCC(COc3ccc(C)c(C(=O)O)n3)(CC1)CC2` [Example 120, 6-((4-((3-(3-chloro-5-methoxypyridin-4-yl)-5-cyclopropylisoxazol-4-yl)methoxy)bicyclo[2.2.2]octan-1-yl)methoxy)-3-methylpicolinic acid]: 2300 nM; for `O=C(O)c1ccc(F)c(C(O)C23CCC(OCc4c(-c5c(Cl)cccc5Cl)noc4C4CC4)(CC2)CC3)c1` (centres unmarked) [Example 121, 3-((4-((5-cyclopropyl-3-(2,6-dichlorophenyl)isoxazol-4-yl)methoxy)bicyclo[2.2.2]octan-1-yl)(hydroxy)methyl)-4-fluorobenzoic acid]: 1500 nM; for `O=C(O)c1cc(F)c2nc(C(O)C34CCC(OCc5c(-c6c(Cl)cccc6Cl)noc5C5CC5)(CC3)CC4)sc2c1` (centres unmarked) [Example 122, 2-((4-((5-cyclopropyl-3-(2,6-dichlorophenyl)isoxazol-4-yl)methoxy)bicyclo[2.2.2]octan-1-yl)(hydroxy)methyl)-4-fluorobenzo[d]thiazole-6-carboxylic acid]: 1000 nM. The same measure for `NC(=O)c1cc(F)c2nc(C(O)C34CCC(OCc5c(-c6c(Cl)cccc6Cl)noc5C5CC5)(CC3)CC4)sc2c1` (centres unmarked) [Example 123, 2-((4-((5-cyclopropyl-3-(2,6-dichlorophenyl)isoxazol-4-yl)methoxy)bicyclo[2.2.2]octan-1-yl)(hydroxy)methyl)-4-fluorobenzo[d]thiazole-6-carboxamide]: 280 nM; for `O=C(O)c1ccc2nc(C(O)C34CCC(OCc5c(-c6c(Cl)cccc6Cl)noc5C5CC5)(CC3)CC4)sc2c1` (centres unmarked) [Example 124, 2-((4-((5-cyclopropyl-3-(2,6-dichlorophenyl)isoxazol-4-yl)methoxy)bicyclo[2.2.2]octan-1-yl)(hydroxy)methyl)benzo[d]thiazole-6-carboxylic acid]: 490 nM; for `O=C(O)c1ccc(C(O)C23CCC(OCc4c(-c5c(Cl)cccc5Cl)noc4C4CC4)(CC2)CC3)c(F)c1` (centres unmarked) [Example 125, 4-((4-((5-cyclopropyl-3-(2,6-dichlorophenyl)isoxazol-4-yl)methoxy)bicyclo[2.2.2]octan-1-yl)(hydroxy)methyl)-3-fluorobenzoic acid]: 1600 nM.

Molecule `O=C(O)c1ccc2cc(C(O)C34CCC(OCc5c(-c6c(Cl)cccc6Cl)noc5C5CC5)(CC3)CC4)ccc2c1` (centres unmarked) [Example 126, 6-((4-((5-cyclopropyl-3-(2,6-dichlorophenyl)isoxazol-4-yl)methoxy)bicyclo[2.2.2]octan-1-yl)(hydroxy)methyl)-2-naphthoic acid] returned an EC50 of 600 nM. The same measure for `O=C(O)c1cccc(CC(O)C23CCC(OCc4c(-c5c(Cl)cccc5Cl)noc4C4CC4)(CC2)CC3)c1` (centres unmarked) [Example 127, 3-(2-(4-((5-cyclopropyl-3-(2,6-dichlorophenyl)isoxazol-4-yl)methoxy)bicyclo[2.2.2]octan-1-yl)-2-hydroxyethyl)benzoic acid]: 280 nM. The value for `O=C(O)c1ccc2c(C(O)C34CCC(OCc5c(-c6c(Cl)cccc6Cl)noc5C5CC5)(CC3)CC4)ccnc2c1` (centres unmarked) [Example 128, 4-((4-((5-cyclopropyl-3-(2,6-dichlorophenyl)isoxazol-4-yl)methoxy)bicyclo[2.2.2]octan-1-yl)(hydroxy)methyl)quinoline-7-carboxylic acid] was 700 nM; that for `O=C(O)C1(c2cccc(C(O)C34CCC(OCc5c(-c6c(Cl)cccc6Cl)noc5C5CC5)(CC3)CC4)c2)CC1` (centres unmarked) [Example 129, 1-(3-((4-((5-cyclopropyl-3-(2,6-dichlorophenyl)isoxazol-4-yl)methoxy)bicyclo[2.2.2]octan-1-yl)(hydroxy)methyl)phenyl)cyclopropane-1-carboxylic acid] was 3000 nM.

Molecule `O=C(O)c1cccc(C#CC23CCC(OCc4c(-c5c(Cl)cccc5Cl)noc4C4CC4)(CC2)CC3)c1` [Example 130, 3-((4-((5-cyclopropyl-3-(2,6-dichlorophenyl)isoxazol-4-yl)methoxy)bicyclo[2.2.2]octan-1-yl)ethynyl)benzoic acid] displayed an EC50 of 68 nM. Take `O=C(O)c1cccc(-n2cc(C34CCC(OCc5c(-c6c(Cl)cccc6Cl)noc5C5CC5)(CC3)CC4)nn2)c1` [Example 131, 3-(4-(4-((5-cyclopropyl-3-(2,6-dichlorophenyl)isoxazol-4-yl)methoxy)bicyclo[2.2.2]octan-1-yl)-1H-1,2,3-triazol-1-yl)benzoic acid]: the EC50 came out at 460 nM.

The molecule `O=C(O)c1ccnc(C#CC23CCC(OCc4c(-c5c(Cl)cccc5Cl)noc4C4CC4)(CC2)CC3)c1` [Example 132, 2-((4-((5-cyclopropyl-3-(2,6-dichlorophenyl)isoxazol-4-yl)methoxy)bicyclo[2.2.2]octan-1-yl)ethynyl)isonicotinic acid] gave a concentration for a half-maximal effect (EC50) of 3500 nM. The same measure for `O=C(O)c1cc(F)c2nc(C#CC34CCC(OCc5c(-c6c(Cl)cncc6Cl)noc5C5CC5)(CC3)CC4)sc2c1` [Example 133, 2-((4-((5-cyclopropyl-3-(3,5-dichloropyridin-4-yl)isoxazol-4-yl)methoxy)bicyclo[2.2.2]octan-1-yl)ethynyl)-4-fluorobenzo[d]thiazole-6-carboxylic acid]: 180 nM; for `O=C(O)c1ccc2nc(C34CCC(OCc5c(-c6c(Cl)cccc6Cl)noc5C5CC5)(CC3)CC4)ccc2c1` [Example 134, 2-(4-((5-cyclopropyl-3-(2,6-dichlorophenyl)isoxazol-4-yl)methoxy)bicyclo[2.2.2]octan-1-yl)quinoline-6-carboxylic acid]: 83 nM; for `Cn1cc(C(=O)O)c2ccc(C34CCC(OCc5c(-c6c(Cl)cccc6Cl)noc5C5CC5)(CC3)CC4)nc21` [Example 135, 6-(4-((5-cyclopropyl-3-(2,6-dichlorophenyl)isoxazol-4-yl)methoxy)bicyclo[2.2.2]octan-1-yl)-1-methyl-1H-pyrrolo[2,3-b]pyridine-3-carboxylic acid]: 9 nM.

`O=C(O)c1ccc2nc(C34CCC(OCc5c(-c6c(Cl)cccc6Cl)noc5C5CC5)(CC3)CC4)ccc2n1` [Example 136, 6-(4-((5-cyclopropyl-3-(2,6-dichlorophenyl)isoxazol-4-yl)methoxy)bicyclo[2.2.2]octan-1-yl)-1,5-naphthyridine-2-carboxylic acid] gave a concentration giving a half-maximal response (EC50) of 36 nM. The value for `O=C(O)c1ccnc(C23CCC(OCc4c(-c5c(Cl)cccc5Cl)noc4C4CC4)(CC2)CC3)c1` [Example 137, 2-(4-((5-cyclopropyl-3-(2,6-dichlorophenyl)isoxazol-4-yl)methoxy)bicyclo[2.2.2]octan-1-yl)isonicotinic acid] was 420 nM; that for `O=C(O)c1ccc(C23CCC(OCc4c(-c5c(Cl)cccc5Cl)noc4C4CC4)(CC2)CC3)nc1` [Example 138, 6-(4-((5-cyclopropyl-3-(2,6-dichlorophenyl)isoxazol-4-yl)methoxy)bicyclo[2.2.2]octan-1-yl)nicotinic acid] was 440 nM.
